Key:
Smn protein = Smn protein assay in cultured cells (SMN HTRF); type: cell-based, human; conditions: SMA patient fibroblast cells (GM03813), 48 hours; for maximum fold (Fold) increase of Smn protein: 7-point concentration data, relative to vehicle control; for EC1.5x for Smn protein expression: 7-point concentration curve, concentration producing 1.5 times Smn protein vs DMSO vehicle
Method in brief: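 SMA patient fibroblasts, 5,000 per well in DMEM-10% FBS, exposed 48 h at 37° C. to a 7-point, 3.16-fold compound series in triplicate. RIPA lysates read by SMN HTRF (665/620 nm, overnight at room temperature); ΔF over blank expressed as fold of vehicle.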

[1] = system: full length SMN2 minigene mRNA containing SMN2 exon 7; experiment: SMN2 minigene mRNA splicing RT-qPCR assay in cultured cells; type: cell-based, human; conditions: Homo sapiens, HEK293-H; HEK293H cells stably transfected with SMN2-A minigene, 24 hours, 7-point concentration curve; concentration giving 1.5-fold full length SMN2 mRNA vs vehicle; read-out: EC1.5x for production of full length SMN2 mRNA
Method in brief: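 HEK293H cells stably carrying SMN2-A minigene treated 24 h (37 °C) with compound, 7-point 3.16-fold dilution, duplicates. Multiplex RT-qPCR on lysate with exon 7/luciferase primers and exon 7–8 junction probe (minigene-specific). Full-length transcript normalised to GAPDH by modified ΔΔCt, expressed relative to vehicle-treated cells.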

SMILES | melting point [°C] | maximum fold (Fold) increase of Smn protein (Smn protein) | EC (1.5-fold) [1] [µM] | EC1.5x for Smn protein expression (Smn protein)
Cc1nc2cc(-c3cc4ccc(N5CCNCC5)cc4c(=O)o3)ccc2s1 [Cpd 106, 3-(2-methyl-1,3-benzothiazol-5-yl)-7-(piperazin-1-yl)-1H-isochromen-1-one] | 229 to 235 | * (A maximum fold increase of ≦1.2 is indicated by one star (*)) | 1 to 3 | 
Cc1cn2cc(-c3cc4ccc(C5=CCN(C6CCC6)CC5)cc4c(=O)o3)nc2c(C)n1 [Cpd 94, 7-(1-cyclobutyl-1,2,3,6-tetrahydropyridin-4-yl)-3-(6,8-dimethylimidazo[1,2-a]pyrazin-2-yl)-1H-isochromen-1-one] | 252 to 254 | ***** (a fold increase >1.65 is indicated by five stars (*****)) | ≤ 0.1 | *** (an EC1.5× between >0.3 nM and ≦1 nM is indicated by three stars (***))
Cc1nc2ccc(-c3cc4ccc(N5CCN(C)CC5)cc4c(=O)o3)cc2s1 [Cpd 104, 3-(2-methyl-1,3-benzothiazol-6-yl)-7-(4-methylpiperazin-1-yl)-1H-isochromen-1-one] | 231 to 236 | *** (a fold increase between >1.35 and ≦1.5 is indicated by three stars (***)) | 0.1 to 0.3 | 
Cc1nc2ccc(-c3cc4ccc(N5CCN(C6COC6)CC5)cc4c(=O)o3)cc2s1 [Cpd 107, 3-(2-methyl-1,3-benzothiazol-6-yl)-7-[4-(oxetan-3-yl)piperazin-1-yl]-1H-isochromen-1-one] | 222 to 228 | *** (a fold increase between >1.35 and ≦1.5 is indicated by three stars (***)) | 0.3 to 1 | 
COc1ccc(-c2cc3ccc(N4CCN[C@@H](C)C4)cc3c(=O)o2)cc1OC [Cpd 30, 3-(3,4-dimethoxyphenyl)-7-[(3S)-3-methylpiperazin-1-yl]-1H-isochromen-1-one] | 155 to 157 | **** (a fold increase between >1.5 and ≦1.65 is indicated by four stars (****)) | ≤ 0.1 | **** (an EC1.5×≦0.3 nM is indicated by four stars (****))
Cc1cn2cc(-c3cc4ccc(N5CCN(CC(C)C)CC5)cc4c(=O)o3)nc2c(C)n1 [Cpd 86, 3-(6,8-dimethylimidazo[1,2-a]pyrazin-2-yl)-7-[4-(2-methylpropyl)piperazin-1-yl]-1H-isochromen-1-one] | 243 to 245 | *** (a fold increase between >1.35 and ≦1.5 is indicated by three stars (***)) | ≤ 0.1 | 
CCc1nc(C)cn2cc(-c3cc4ccc(N5CCN[C@@H](C)C5)cc4c(=O)o3)nc12 [Cpd 152, 3-(8-ethyl-6-methylimidazo[1,2-a]pyrazin-2-yl)-7-[(3S)-3-methylpiperazin-1-yl]-1H-isochromen-1-one] | 206 to 211 | ***** (a fold increase >1.65 is indicated by five stars (*****)) | ≤ 0.1 | **** (an EC1.5×≦0.3 nM is indicated by four stars (****))
Cc1nc(Cl)cn2cc(-c3cc4ccc(N5CCNCC5)cc4c(=O)o3)nc12 [Cpd 99, 3-(6-chloro-8-methylimidazo[1,2-a]pyrazin-2-yl)-7-(piperazin-1-yl)-1H-isochromen-1-one] | 221 to 226 | ***** (a fold increase >1.65 is indicated by five stars (*****)) | ≤ 0.1 | *** (an EC1.5× between >0.3 nM and ≦1 nM is indicated by three stars (***))
Cc1nc(Cl)cn2cc(-c3cc4ccc(N5CCN(C)[C@H](C)C5)cc4c(=O)o3)nc12 [Cpd 111, 3-(6-chloro-8-methylimidazo[1,2-a]pyrazin-2-yl)-7-[(3R)-3,4-dimethylpiperazin-1-yl]-1H-isochromen-1-one] | 271 to 276 | ***** (a fold increase >1.65 is indicated by five stars (*****)) | 0.1 to 0.3 | *** (an EC1.5× between >0.3 nM and ≦1 nM is indicated by three stars (***))

Reference: US9399649B2, “Compounds for treating spinal muscular atrophy” (PTC Therapeutics Inc., priority 2012, dated 2016)
